The results in this text go back to ChEMBL document CHEMBL1123448, “Studies in antifertility agents. 50. Stereoselective binding of d- and l-centchromans to estrogen receptors and their antifertility activity” (1986).

SMILES strings stand for the structures.

The species named for one assay is Rattus norvegicus. Nature of the assay: Antiimplantation activity in sperm-positive female albino rats mated to coeval males of proven fertility. It counts as functional.
The target of assay [1] is T1, Estrogen receptor (Rattus norvegicus) (UniProt P06211+Q62986). Briefly: Antiuterotrophic activity in immature rats at 50 ug. The format is functional.
Assay [2] addresses T1, Estrogen receptor (Rattus norvegicus). Briefly: Estrogenic activity in immature rats and assayed as uterine weight gain at 5 ug subcutaneous dose. It counts as functional.
Assay [3] shares this target. Nature of the assay: Estrogenic activity as percent of control at 500 ug subcutaneous dose. The format is functional.
For assay [4] the target is unchanged. Briefly: Estrogenic activity as percent of control at 5 ug subcutaneous dose. It counts as functional.
Assay [5] has the same target. Briefly: Antiuterotrophic activity in immature rats at 5 ug. The format is functional.
The target is the same in assay [6]. Nature of the assay: Estrogenic activity in immature rats and assayed as uterine weight gain at 500 ug subcutaneous dose. It counts as functional.
Assay [7] has the same target.
Assay [8] has the same target. Briefly: Anti-uterotrophic activity in immature rats at 50 ug. It counts as functional.
Assay [9] has the same target. Nature of the assay: Antiuterotrophic activity in immature rats at 100 ug. It counts as functional.
Assay [10] shares this target. Briefly: Anti-uterotrophic activity in immature rats at 100 ug. It counts as functional.
The target is the same in assay [11]. Nature of the assay: Anti-uterotrophic activity in immature rats at 5 ug. The format is functional.
The target is the same in assay [12]. Nature of the assay: Estrogenic activity as percent of control at 50 ug subcutaneous dose. The format is functional.
The target is the same in assay [13]. Nature of the assay: Estrogenic activity in immature rats and assayed as uterine weight gain at 0.05 ug subcutaneous dose. The format is functional.
The target is the same in assay [14]. Briefly: Estrogenic activity as percent of control at 100 ug subcutaneous dose. The format is functional.
For assay [15] the target is unchanged. Nature of the assay: Estrogenic activity in immature rats and assayed as uterine weight gain at 50 ug subcutaneous dose. The format is functional.
For assay [16] the target is unchanged. Briefly: Estrogenic activity in immature rats and assayed as uterine weight gain at 100 ug subcutaneous dose. The format is functional.

`COc1ccc2c(c1)CCC(c1ccccc1)=C2c1ccc(OCCN2CCCC2)cc1` [NAFOXIDINE]: the minimal effective dose in the assay filed under Rattus norvegicus (Rattus norvegicus, read-out: MED) worked out at 0.1 mg/kg.
The compound `COc1ccc2c(c1)OC(C)(C)C(c1ccccc1)C2c1ccc(OCCN2CCCC2)cc1` (stereo in doubt; form 1) [ORMELOXIFENE] registered an MED in the assay listed under Rattus norvegicus of 5 mg/kg.
In general, inhibition refers to the percentage by which the read-out fell short of the control. Low readings indicate little suppression, high ones strong suppression. As for `COc1ccc2c(c1)OC(C)(C)C(c1ccccc1)C2c1ccc(OCCN2CCCC2)cc1` (stereo in doubt; form 1), the Stimulation in [1] is 105%; in assay [5] it was 99%; in [9], 80%. The Uterine wet weight in assay [2] was found to be 31.8; in [6], 45.4; in assay [7], 16.8; in assay [8], 55.7; in [10], 42.3; in assay [11] it was 52.3. Further, the Uterine wet weight in assay [13] came out at 16.2; in [15] it was 40.5; in assay [16] it was 40.4. For the same compound, the Control in [3] worked out at 267%; in [4], 187%; in assay [12], 238%; in assay [14] it was 238%. The values for the inhibition in assay [10] and in assay [11] were 28.4% and 1.9%, respectively.
Compound `COc1ccc2c(c1)OC(C)(C)C(c1ccccc1)C2c1ccc(OCCN2CCCC2)cc1` (racemic) [ORMELOXIFENE] displayed an MED in the assay listed under Rattus norvegicus of 0.25 mg/kg.
`COc1ccc2c(c1)OC(C)(C)C(c1ccccc1)C2c1ccc(OCCN2CCCC2)cc1` (racemic): the Stimulation in assay [1] was determined as 94%; in assay [5], 82%; in assay [9], 87%. Further, the Uterine wet weight stood at 29.5 in assay [2]; 16.3 in assay [7]; 60.3 in [8]; 56 in assay [10]; 52.5 in assay [11]; 16.6 in assay [13]. The Uterine wet weight in [15] is 47.7; in assay [16] it was 49. In addition, the Control in assay [4] stood at 174%; in assay [12], 281%; in assay [14], 288%. Moreover, the inhibition in assay [8] was found to be 8.1%; in assay [10], 16.7%; in assay [11], 23.8%.
As to `COc1ccc2c(c1)OC(C)(C)C(c1ccccc1)C2c1ccc(OCCN2CCCC2)cc1` (stereo in doubt; form 2), the Stimulation turned out to be 77% in assay [1], 77% in assay [5] and 68% in assay [9]. For the same compound, the Uterine wet weight in assay [2] is 37.8; in assay [7], 25.8; in assay [8], 52.6; in [10], 46.4; in [11], 52.7; in [13] it was 15.8. Further, the Uterine wet weight came to 48.6 in assay [15] and 51.4 in [16]. In addition, the values for the Control in assay [4], in [12] and in [14] were 222%, 286% and 303%, respectively. The inhibition in assay [8] worked out at 28.7%; in assay [10] it was 40.3%; in assay [11] it was 28.7%.
The compound `COc1ccc2c(c1)OC(C)(C)C(c1ccccc1)C2c1ccc(OCCN2CCCC2)cc1` (stereo in doubt; form 2) [ORMELOXIFENE] had an MED in the assay filed under Rattus norvegicus of 0.15 mg/kg.
